Results: paper PMC6271935, “Synthesis and Broad-Spectrum Antiviral Activity of Some Novel Benzo-Heterocyclic Amine Compounds” (Molecules, 2014)
pIC50: −log10 of the molar value.

Tests used:
[1] = system: Influenza A/hanfang/359/95; assay: microbe, parasite or virus in culture; assay type: cell-based; settings: for pIC50: Influenza A virus, MDCK
[2] = system: MDCK cells; assay: Cytotoxicity in MDCK cells (CPE); assay type: cell-based, Canine; settings: 48 h, Reed & Muench
Description: (§1) The cytotoxicity of the compounds in MDCK, Vero and HepG2.2.15 cells was monitored via cytopathic effect (CPE) assays. The MDCK and Vero cells (2.5 × 10^4 /well) were plated in a 96-well plate. Following a 24 h hold period, the monolayer of cells was incubated in the presence of various concentrations of the test compounds. […] The TC50 value was calculated using Reed & Muench analysis.

[3] = system: Cox B3; assay: organism not typed; assay type: cell-based, Coxsackie viruses (Cox B3 Nancy strain); settings: for pIC50: Vero
[4] = system: HCV; assay: Anti-HCV assay in Huh7.5 cells, intracellular HCV RNA by real time RT-PCR; assay type: cell-based; settings: Hepatitis C virus, 96 h
[5] = system: Huh7.5 cells; assay: Cytotoxicity in Huh7.5 cells (MTT); assay type: cell-based, human; settings: 96 h
Description: The Huh7.5 cells (1 × 10^4 cells/well) were plated in 96-well plates. Six hours later the culture media was replaced with fresh medium containing the test compounds at various concentrations. Cytotoxicity was evaluated with the 3-(4,5-dimethylthiazol-2-yl)-2,5-diphenyltetrazolium bromide (MTT) assay after 96 h.
Huh7.5 cells were seeded at a density of 3 × 10^4 cells/cm^2. After 24 h of incubation, the cells were infected with an HCV viral stock (approximately 45 IU per cell) and simultaneously treated with Telaprevir, the test compounds, or the solvent control. The culture medium was removed 96 h after inoculation, and the total intracellular RNA and total intracellular proteins were extracted with a Qiagen Kit according to the manufacturer’s instructions. Intracellular HCV RNA was quantified using a one-step real time RT-PCR kit (Invitrogen). Cytotoxicity was tested by the MTT assay, and IC50 values were calculated by the Reed and Muench methods.

[6] = system: HBV; assay: Anti-HBV assay in HepG2.2.15 cells, viral DNA by real time PCR; assay type: cell-based, Hepatitis B virus; settings: for pIC50: Hepatitis B virus, HepG2.2.15, 144 h, intracellular viral DNA, 3 + 3 days
Description: The synthesized target compounds were assayed for their broad spectrum antiviral activity towards influenza A, HBV, HCV and Cox B3 virus in vitro. […] The inhibitory activities towards HBV and HCV were tested by real time PCR, and lamivudine (3TC) and teleprevir were used as positive controls, respectively.
The anti-HBV activities of test compounds and a positive control drug were tested in HepG2.2.15 cells. The HepG2.2.15 cells were cultured in 96-well plates and treated with the test compounds at 37 °C for 3 days. The medium was removed, and fresh medium containing the test compounds was added for an additional 3 days. The cells were harvested and intracellular DNA was extracted. The inhibition of viral DNA replication in treated cells versus untreated cells was determined by real time PCR.

[7] = system: HepG2.2.15 cells; assay: Cytotoxicity in HepG2.2.15 cells (CPE); assay type: cell-based, human; settings: 3 + 3 days
Description: Cells were cultured for 3 days at 37 °C in a 5% CO2 atmosphere in an incubator, and the medium was replaced with fresh medium containing the test compounds for an additional 3 days. The cells were subsequently monitored by CPE and the TC50 value was calculated using Reed and Muench analysis.

[8] = system: Vero cells; assay: Cytotoxicity in Vero cells (CPE); settings: 48 h, Reed & Muench
Description: as §1

SMILES	pIC50 [1]	TC50 (50% cytotoxic concentration), Influenza A/hanfang/359/95 [2] [µM]	pIC50 [3]	pIC50 [4]	TC50 (50% cytotoxic concentration), HCV [5] [µM]	pIC50 [6]	TC50 (50% cytotoxic concentration), HBV [7] [µM]	melting point [°C]	TC50 (50% cytotoxic concentration), Cox B3 [8] [µM]	anti-HBV activity (in words) [6]	anti-influenza A activity (in words) ([1]; MDCK cells, CPE)	inhibitory activity towards Cox B3 (in words) ([3]; Vero cells, CPE)
Clc1ccc(CNc2ccc3cc[nH]c3c2)cc1 [1a, (4-Chlorobenzyl)-(1H-indol-6-yl)-amine]	< 5.80	3.35	5.32	5.85	15.88	5.84	8.02	135 to 137	8.34	–	–	–
C(=C\c1ccccc1)/CNc1ccc2cc[nH]c2c1 [1b, (E)-(1H-Indol-6-yl)-(3-phenylallyl)-amine]	< 5.78	2.86	5.54	–	–	< 5.73	3.21	130 to 132	8.61	–	–	–
Cc1ccc(CNc2ccc3cc[nH]c3c2)o1 [1c, (1H-Indol-6-yl)-(5-methylfuran-2-ylmethyl)-amine]	< 6.18	4.52	5.71	5.56	46.78	< 5.25	16.67	100 to 102	25.15	complete loss of antiviral activity	–	–
Cc1ccc(CNc2ccc3cc[nH]c3c2)s1 [1d, (1H-Indol-6-yl)-(5-methylthiophen-2-ylmethyl)-amine]	4.93	26.50	5.77	–	–	< 4.78	28.87	89 to 91	66.10	–	–	–
COc1cc(CNc2ccc3ncoc3c2)cc(Br)c1O [2a, 4-(Benzooxazol-6-ylaminomethyl)-2-bromo-6-methoxyphenol]	< 4.97	64.04	5.45	4.48	89.63	< 4.78	28.87	129 to 131	55.13	–	–	–
O=[N+]([O-])c1ccc(CNc2ccc3ncoc3c2)cc1 [2b, Benzooxazol-6-yl-(4-nitrobenzyl)-amine]	4.38	288.23	4.50	< 4.18	>200	< 5.25	16.67	154 to 156	257.52	–	–	–
C(=C\c1ccccc1)/CNc1ccc2ncoc2c1 [2c, (E)-Benzooxazol-6-yl-(3-phenylallyl)-amine]	4.94	133.16	5.91	4.98	105.44	< 4.78	28.87	100 to 103	103.36	–	–	–
c1csc(CNc2ccc3ncoc3c2)c1 [2d, Benzooxazol-6-yl-thiophen-2-ylmethylamine]	4.46	434.24	5.03	< 4.18	136.53	–	–	62 to 64	100.35	–	–	–
Clc1ccc(CNc2ccc3ncoc3c2)s1 [2e, Benzooxazol-6-yl-(5-chlorothiophen-2-ylmethyl)-amine]	4.96	87.30	5.45	4.75	45.78	< 4.95	19.25	100 to 102	29.08	–	–	–
c1ncc(CNc2ccc3ncoc3c2)cn1 [2f, Benzooxazol-6-yl-pyrimidin-5-ylmethyl-amine]	< 4.01	425.44	4.25	–	–	–	–	175 to 177	295.10	–	–	–
c1cnc2c(CNc3ccc4ncoc4c3)cccc2c1 [2g, Benzooxazol-6-yl-quinolin-8-ylmethylamine]	5.04	56.04	5.05	4.85	27.57	–	–	98 to 100	80.80	–	–	–
Nc1ccn([C@@H]2CS[C@H](CO)O2)c(=O)n1 [3TC, lamivudine, reference compound]	–	–	–	–	–	5.73	>100	–	–	–	–	–
O=[N+]([O-])c1cccc(CNc2ccc3ncsc3c2)c1 [3c, Benzothiazol-6-yl-(3-nitrobenzyl)-amine]	4.90	45.01	5.14	–	–	–	–	126 to 128	112.45	–	–	–
O=[N+]([O-])c1ccc(CNc2ccc3ncsc3c2)cc1 [3d, Benzothiazol-6-yl-(4-nitrobenzyl)-amine]	5.47	272.01	5.74	4.65	142.86	< 5.25	9.62	–	181.3	–	–	–
c1csc(CNc2ccc3ncsc3c2)c1 [3h, Benzothiazol-6-yl-thiophen-2-ylmethylamine]	5.18	78.14	4.98	4.32	153.72	–	–	148 to 150	65.03	–	–	–
c1ccc2c(CNc3ccc4ncsc4c3)c3ccccc3cc2c1 [3k, Anthracen-9-ylmethyl-benzothiazol-6-yl-amine]	< 6.39	1.73	–	–	–	–	–	174 to 176	2.09	–	complete loss in activity	no inhibitory activity
C(=C\c1ccccc1)/CNc1ccc2nc[nH]c2c1 [4a, (E)-(3H-Benzoimidazol-5-yl)-(3-phenyl-allyl)-amine]	5.31	14.84	5.20	5.26	79.04	–	–	–	25.75	–	–	–
CCOC(=O)C1=C[C@@H](OC(CC)CC)[C@H](NC(C)=O)[C@@H](N)C1 [Oseltamivir, oseltamivir, reference compound]	4.72	4030.42	–	–	–	–	–	–	–	–	–	–
NC(=O)c1ncn([C@@H]2O[C@H](CO)[C@@H](O)[C@H]2O)n1 [RBV, ribavirin, reference compound]	5.06	–	2.67	–	–	–	–	–	–	–	–	–
CCC[C@H](NC(=O)[C@@H]1[C@H]2CCC[C@H]2CN1C(=O)[C@@H](NC(=O)[C@@H](NC(=O)c1cnccn1)C1CCCCC1)C(C)(C)C)C(=O)C(=O)NC1CC1 [Telaprevir, telaprevir, reference compound]	–	–	–	7.96	32.12	–	–	–	–	–	–	–
